How the values were obtained:
[1] = animal studies; doses approximately equivalent to the proposed human dose; cited from earlier work
[2] = system: term and late preterm subjects with hyperbilirubinemia; experiment: Phase 2b trial: vital signs, physical, neurological, audiology and ophthalmological examinations; type: in vivo, human
Source text: (§1) Safety measurements included adverse events (AEs), hematology and chemistry laboratory tests, vital sign measurements, physical examinations, dermatological assessments, hearing assessments, ophthalmological assessments, neurological assessments, and quantitative electrocardiograms (ECGs).
All other safety endpoints (vital sign measurements, hematology and chemistry laboratory tests, physical examination results, ECG results, etc.) were summarized by treatment group and visit. In addition, shift tables were generated for laboratory results comparing postbaseline results with baseline. Similar shift tables were generated for results of vital sign measurements.

[3] = system: term and late preterm subjects with hyperbilirubinemia; experiment: Phase 2b trial: adverse events; type: in vivo, human
Source text: as §1
Safety population: Defined as all subjects who were enrolled in the clinical study and received IMP. Subjects were summarized according to the treatment received.
Analysis of Safety Parameters: Descriptive statistical methods were used to summarize safety parameters based on the safety population. All treatment-emergent adverse events (TEAEs) were summarized. Tabular summaries were also presented for all TEAEs considered potentially related to the IMP, TEAEs by intensity, serious adverse events (SAEs), and AEs leading to discontinuation.

tin IV mesoporphyrin IX dichloride [Stannsoporfin]
effects on ECG, central nervous system, cardiovascular, pulmonary and renal functions [1]: no biologically significant effects
effect on vital signs (blood pressure, pulse, respiratory rate, temperature) ([2]; 1.5 to 4.5 mg/kg IM, preliminary data): no effect
mean pulse ([2]; 45 minutes after treatment, no longer observed at 1.5 hours): decrease in mean pulse
audiology examinations ([2]; screening, 48 hours after treatment/hospital discharge, or early termination, all subjects): normal
# of subjects one AE, n (%) ([3]; 1.5 mg/kg IM): 8 (47.1%)
AE Anal Abscess: subjects, n (%) ([3]; 1.5 mg/kg IM): 0
AE Anemia: subjects, n (%) ([3]; 1.5 mg/kg IM): 0
AE Bradycardia: subjects, n (%) ([3]; 1.5 mg/kg IM): 0
AE CO2 decreased: subjects, n (%) ([3]; 1.5 mg/kg IM): 0
AE CRP increased: subjects, n (%) ([3]; 1.5 mg/kg IM): 1 (5.9%)
AE Contusion: subjects, n (%) ([3]; 1.5 mg/kg IM): 1 (5.9%)
AE Depressed level consciousness: subjects, n (%) ([3]; 1.5 mg/kg IM): 0
AE Diaper dermatitis: subjects, n (%) ([3]; 1.5 mg/kg IM): 2 (11.8%)
AE Erythema toxicum: subjects, n (%) ([3]; 1.5 mg/kg IM): 0
AE Erythema: subjects, n (%) ([3]; 1.5 mg/kg IM): 0
AE Flushing: subjects, n (%) ([3]; 1.5 mg/kg IM): 0
AE Hemangioma: subjects, n (%) ([3]; 1.5 mg/kg IM): 1 (5.9%)
AE Hemoglobin increased: subjects, n (%) ([3]; 1.5 mg/kg IM): 0
AE Hyperbilirubinemia: subjects, n (%) ([3]; 1.5 mg/kg IM): 2 (11.8%)
AE Jaundice: subjects, n (%) ([3]; 1.5 mg/kg IM): 5 (29.4%)
AE Leukocytosis: subjects, n (%) ([3]; 1.5 mg/kg IM): 0
AE Meningitis: subjects, n (%) ([3]; 1.5 mg/kg IM): 0
AE Oral Candidiasis: subjects, n (%) ([3]; 1.5 mg/kg IM): 0
AE Rash neonatal: subjects, n (%) ([3]; 1.5 mg/kg IM): 0
AE Rash papular: subjects, n (%) ([3]; 1.5 mg/kg IM): 0
AE Rash: subjects, n (%) ([3]; 1.5 mg/kg IM): 1 (5.9%)
AE Seborrhoeic dermatitis: subjects, n (%) ([3]; 1.5 mg/kg IM): 0
AE Serum Glucose decreased: subjects, n (%) ([3]; 1.5 mg/kg IM): 0
AE Serum sodium increased: subjects, n (%) ([3]; 1.5 mg/kg IM): 0
AE Skin exfoliation: subjects, n (%) ([3]; 1.5 mg/kg IM): 1 (5.9%)
AE Thrombocytopenia: subjects, n (%) ([3]; 1.5 mg/kg IM): 0
AE Umbilical Hernia: subjects, n (%) ([3]; 1.5 mg/kg IM): 0
AE Vomiting: subjects, n (%) ([3]; 1.5 mg/kg IM): 0
Total AEs ([3]; 1.5 mg/kg IM, N = 17): 17
# of subjects one AE, n (%) ([3]; 3.0 mg/kg IM): 10 (55.6%)
AE Anal Abscess: subjects, n (%) ([3]; 3.0 mg/kg IM): 1 (5.6%)
AE Anemia: subjects, n (%) ([3]; 3.0 mg/kg IM): 1 (5.6%)
AE Bradycardia: subjects, n (%) ([3]; 3.0 mg/kg IM): 0
AE CO2 decreased: subjects, n (%) ([3]; 3.0 mg/kg IM): 1 (5.6%)
AE CRP increased: subjects, n (%) ([3]; 3.0 mg/kg IM): 0
AE Contusion: subjects, n (%) ([3]; 3.0 mg/kg IM): 0
AE Depressed level consciousness: subjects, n (%) ([3]; 3.0 mg/kg IM): 0
AE Diaper dermatitis: subjects, n (%) ([3]; 3.0 mg/kg IM): 1 (5.6%)
AE Erythema toxicum: subjects, n (%) ([3]; 3.0 mg/kg IM): 3 (16.7%)
AE Erythema: subjects, n (%) ([3]; 3.0 mg/kg IM): 1 (5.6%)
AE Flushing: subjects, n (%) ([3]; 3.0 mg/kg IM): 1 (5.6%)
AE Hemangioma: subjects, n (%) ([3]; 3.0 mg/kg IM): 0
AE Hemoglobin increased: subjects, n (%) ([3]; 3.0 mg/kg IM): 0
AE Hyperbilirubinemia: subjects, n (%) ([3]; 3.0 mg/kg IM): 1 (5.6%)
AE Jaundice: subjects, n (%) ([3]; 3.0 mg/kg IM): 0
AE Leukocytosis: subjects, n (%) ([3]; 3.0 mg/kg IM): 0
AE Meningitis: subjects, n (%) ([3]; 3.0 mg/kg IM): 0
AE Oral Candidiasis: subjects, n (%) ([3]; 3.0 mg/kg IM): 0
AE Rash neonatal: subjects, n (%) ([3]; 3.0 mg/kg IM): 1 (5.6%)
AE Rash papular: subjects, n (%) ([3]; 3.0 mg/kg IM): 0
AE Rash: subjects, n (%) ([3]; 3.0 mg/kg IM): 0
AE Seborrhoeic dermatitis: subjects, n (%) ([3]; 3.0 mg/kg IM): 1 (5.6%)
AE Serum Glucose decreased: subjects, n (%) ([3]; 3.0 mg/kg IM): 1 (5.6%)
AE Serum sodium increased: subjects, n (%) ([3]; 3.0 mg/kg IM): 1 (5.6%)
AE Skin exfoliation: subjects, n (%) ([3]; 3.0 mg/kg IM): 0
AE Thrombocytopenia: subjects, n (%) ([3]; 3.0 mg/kg IM): 0
AE Umbilical Hernia: subjects, n (%) ([3]; 3.0 mg/kg IM): 1 (5.6%)
AE Vomiting: subjects, n (%) ([3]; 3.0 mg/kg IM): 0
Total AEs ([3]; 3.0 mg/kg IM, N = 18): 16
serious adverse event Anemia: Outcome ([3]; 3.0 mg/kg, Rh incompatibility, required transfusion): Resolved
# of subjects one AE, n (%) ([3]; 4.5 mg/kg IM): 3 (37.5%)
AE Anal Abscess: subjects, n (%) ([3]; 4.5 mg/kg IM): 0
AE Anemia: subjects, n (%) ([3]; 4.5 mg/kg IM): 1 (12.5%)
AE Bradycardia: subjects, n (%) ([3]; 4.5 mg/kg IM): 1 (12.5%)
AE CO2 decreased: subjects, n (%) ([3]; 4.5 mg/kg IM): 0
AE CRP increased: subjects, n (%) ([3]; 4.5 mg/kg IM): 0
AE Contusion: subjects, n (%) ([3]; 4.5 mg/kg IM): 0
AE Depressed level consciousness: subjects, n (%) ([3]; 4.5 mg/kg IM): 1 (12.5%)
AE Diaper dermatitis: subjects, n (%) ([3]; 4.5 mg/kg IM): 0
AE Erythema toxicum: subjects, n (%) ([3]; 4.5 mg/kg IM): 0
AE Erythema: subjects, n (%) ([3]; 4.5 mg/kg IM): 1 (12.5%)
AE Flushing: subjects, n (%) ([3]; 4.5 mg/kg IM): 0
AE Hemangioma: subjects, n (%) ([3]; 4.5 mg/kg IM): 0
AE Hemoglobin increased: subjects, n (%) ([3]; 4.5 mg/kg IM): 1 (12.5%)
AE Hyperbilirubinemia: subjects, n (%) ([3]; 4.5 mg/kg IM): 0
AE Jaundice: subjects, n (%) ([3]; 4.5 mg/kg IM): 0
AE Leukocytosis: subjects, n (%) ([3]; 4.5 mg/kg IM): 1 (12.5%)
AE Meningitis: subjects, n (%) ([3]; 4.5 mg/kg IM): 1 (12.5%)
AE Oral Candidiasis: subjects, n (%) ([3]; 4.5 mg/kg IM): 0
AE Rash neonatal: subjects, n (%) ([3]; 4.5 mg/kg IM): 0
AE Rash papular: subjects, n (%) ([3]; 4.5 mg/kg IM): 0
AE Rash: subjects, n (%) ([3]; 4.5 mg/kg IM): 0
AE Seborrhoeic dermatitis: subjects, n (%) ([3]; 4.5 mg/kg IM): 0
AE Serum Glucose decreased: subjects, n (%) ([3]; 4.5 mg/kg IM): 0
AE Serum sodium increased: subjects, n (%) ([3]; 4.5 mg/kg IM): 0
AE Skin exfoliation: subjects, n (%) ([3]; 4.5 mg/kg IM): 0
AE Thrombocytopenia: subjects, n (%) ([3]; 4.5 mg/kg IM): 1 (12.5%)
AE Umbilical Hernia: subjects, n (%) ([3]; 4.5 mg/kg IM): 0
AE Vomiting: subjects, n (%) ([3]; 4.5 mg/kg IM): 0
Total AEs ([3]; 4.5 mg/kg IM, N = 8): 8
serious adverse event Meningitis: Outcome ([3]; 4.5 mg/kg, negative cultures): Resolved
subjects who experienced at least 1 TEAE ([3]; each treatment group): Greater than 30%
incidence of TEAEs, 3 stannsoporfin treatment groups versus placebo ([3]; final data): no statistically significant differences

From patent publication US20130158362A1 (INFACARE PHARMACEUTICAL CORPORATION, priority 2011, published 2013)
